Values quoted from earlier work in patent publication US20140081110A1, “ELECTROPHYSIOLOGICAL DIAGNOSIS AND TREATMENT FOR ASTHMA” (University of Liverpool, priority 2011, published 2014).

Test system: normal airway
Settings: UK guidance on asthma (British Guideline on the Management of Asthma, Revised January 2012)

SMILES: CC(=O)OC(C)C[N+](C)(C)C (stereo not shown) [methacholine]
- methacholine dose required to reduce the Forced Expiratory Volume in 1 Second (FEV1) by 20%: > 8 mg/mL
